According to patent US8959984B2, “Proteome-wide quantification of small molecule binding to cellular target proteins” (priority 2007, dated 2015):
Several values for one entry are separate records, joined by “and”; a condition that tells them apart may be missing. Identical values can stand only once.

Columns and labels:
BLMH = biological target: T1, BLMH (Homo sapiens, UniProt Q13867); assay: binding to AX14596 beads (HeLa lysate, SILAC MS)
T1 construct: endogenous in cells; host or cells: HeLa S3
T1 sequence (Q13867 1-455): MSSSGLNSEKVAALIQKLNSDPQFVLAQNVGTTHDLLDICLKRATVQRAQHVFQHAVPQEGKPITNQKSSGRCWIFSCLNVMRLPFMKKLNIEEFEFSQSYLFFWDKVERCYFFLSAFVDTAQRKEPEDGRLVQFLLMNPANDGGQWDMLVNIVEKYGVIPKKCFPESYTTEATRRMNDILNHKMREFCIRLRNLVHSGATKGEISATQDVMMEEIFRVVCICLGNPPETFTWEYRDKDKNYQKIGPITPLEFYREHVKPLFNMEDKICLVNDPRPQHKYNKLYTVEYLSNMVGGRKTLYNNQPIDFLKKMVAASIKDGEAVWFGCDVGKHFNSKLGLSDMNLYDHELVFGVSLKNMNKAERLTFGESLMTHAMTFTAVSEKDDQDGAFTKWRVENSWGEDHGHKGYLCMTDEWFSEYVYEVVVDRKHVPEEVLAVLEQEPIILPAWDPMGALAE
Description: (§1) Differentially SILAC-encoded cell lysates were either incubated with the inhibitor beads displaying immobilized AX14596 or control resin devoid of ligand. In parallel, the supernatant from the first binding step was subjected to a second incubation with the AX14596 resin (FIG. 4). The resulting three elution fractions were combined, resolved by gel electrophoresis, proteolytically digested and the relative abundance of the retained proteins quantified. Proteins showing considerable binding to the control resin were identified as non-specific interactors and therefore not considered further. […] These target-specific ratios were similar in “label switch” experiments (FIGS. 6a and 6c). The binding equilibrium was determined in parallel control SILAC experiments as well as the excess of the immobilized compound over its cellular targets, the excess preferably being a molar excess (FIG. 7 and FIG. 8).
(§2) Cysteine carbamidomethylation was set as a fixed modification and N-acetyl protein and oxidized methionine were allowed as variable modifications. Spectra that were determined to result from heavy labeled peptides in the pre-search detection of SILAC partners by MaxQuant were searched with the fixed modifications Lys^4, Lys^8, Arg^6 and Arg^10, whereas MS/MS spectra for which no SILAC state could be assigned before database searching were searched with Lys^4, Lys^8, Arg^6 and Arg^10 as variable modifications. The mass tolerance was set to 5 ppm for monoisotopic precursor ions and to 0.5 Da for MS/MS peaks. The minimum peptide length was set to 6 amino acids and up to three missed cleavages and three isotopically labeled amino acids were permitted per peptide. The accepted false discovery rate (FDR) was 1% for the proteins and peptides. The cut-off for the posterior error probability (PEP) of peptides was set to 10%. Peptide PEPs were determined by generating Mascot score and peptide-length-dependent histograms for both the forward and the reverse hits and then deriving the probability of a false identification for a given top-scoring peptide using Bayes' theorem. The PEPs of peptides belonging to the same proteins were then multiplied. Each peptide sequence was considered only once with the lowest PEP determined in case of multiple sequencing of the same isotopic pattern or of peptide species with different SILAC, charge or modification states. Proteins were then sorted according to their products of their peptide PEPs and included until a FDR of 1% was reached according to the fraction of reverse proteins contained in the protein list. In addition to the FDR threshold applied for protein identification, proteins were only included when they were identified with at least two peptides (of which one was required to be unique for the protein) and quantified if at least on quantifiable SILAC pair was associated with them. Outliers were not removed as protein ratios were calculated as the median instead of the average of all peptide ratios. For peptides shared among different identified proteins, SILAC ratios were only considered for the ratio of the protein identified with the highest number of unique peptides. Protein ratios for the different in vitro association experiments were corrected for the initial SILAC pooling ratio, which was determined from the median of protein ratios in pooled SILAC-encoded cell extracts.

GAK = biological target: T2, GAK (Homo sapiens, UniProt O14976); assay: binding to AX14596 beads (HeLa lysate, SILAC MS)
T2 sequence (O14976 1-1311): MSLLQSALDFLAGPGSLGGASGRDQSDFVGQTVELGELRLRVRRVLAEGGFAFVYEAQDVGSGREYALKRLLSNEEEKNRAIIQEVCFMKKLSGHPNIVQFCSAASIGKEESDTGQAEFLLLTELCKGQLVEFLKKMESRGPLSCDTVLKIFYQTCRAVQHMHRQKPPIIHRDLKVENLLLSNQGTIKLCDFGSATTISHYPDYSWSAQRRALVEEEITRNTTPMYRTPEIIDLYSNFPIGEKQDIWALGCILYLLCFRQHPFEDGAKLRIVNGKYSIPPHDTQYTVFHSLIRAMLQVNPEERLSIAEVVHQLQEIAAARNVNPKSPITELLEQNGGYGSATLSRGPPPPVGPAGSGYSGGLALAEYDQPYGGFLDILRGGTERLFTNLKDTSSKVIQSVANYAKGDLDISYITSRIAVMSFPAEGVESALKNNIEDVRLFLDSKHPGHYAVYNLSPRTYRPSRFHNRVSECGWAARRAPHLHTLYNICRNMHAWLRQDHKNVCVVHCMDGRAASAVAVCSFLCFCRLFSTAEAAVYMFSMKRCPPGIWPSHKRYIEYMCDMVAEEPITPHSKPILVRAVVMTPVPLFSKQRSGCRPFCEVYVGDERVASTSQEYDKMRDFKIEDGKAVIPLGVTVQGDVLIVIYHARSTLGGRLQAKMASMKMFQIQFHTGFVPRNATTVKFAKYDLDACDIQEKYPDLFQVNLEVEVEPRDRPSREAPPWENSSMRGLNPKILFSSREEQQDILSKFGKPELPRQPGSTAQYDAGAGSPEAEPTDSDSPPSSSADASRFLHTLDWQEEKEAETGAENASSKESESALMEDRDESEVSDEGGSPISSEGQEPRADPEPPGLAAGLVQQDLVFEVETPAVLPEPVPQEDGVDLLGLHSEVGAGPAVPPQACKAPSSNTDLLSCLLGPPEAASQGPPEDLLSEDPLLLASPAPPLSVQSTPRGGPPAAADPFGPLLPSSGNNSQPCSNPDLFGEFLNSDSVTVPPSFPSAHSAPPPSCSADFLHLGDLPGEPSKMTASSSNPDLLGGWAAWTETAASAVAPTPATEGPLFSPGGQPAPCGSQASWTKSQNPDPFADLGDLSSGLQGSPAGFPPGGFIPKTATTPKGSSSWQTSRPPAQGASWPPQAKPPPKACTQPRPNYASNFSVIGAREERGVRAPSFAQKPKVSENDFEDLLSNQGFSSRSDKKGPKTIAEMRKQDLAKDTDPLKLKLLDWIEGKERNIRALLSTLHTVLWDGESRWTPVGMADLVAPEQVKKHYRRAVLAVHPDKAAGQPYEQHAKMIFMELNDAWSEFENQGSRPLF
Description: as §1, §2

Compound: COc1cc2ncnc(Nc3ccc(F)c(Cl)c3)c2cc1OCCCN [AX14596]
- Ki (BLMH): 53.6 µM
- r (3 mg/1 mg lysate) (BLMH): 11.91
- r (5 h/2.5 h inc. time) (BLMH): 1.31
- rAVERAGE (2. inc/1. inc) (BLMH): 0.35
- rAVERAGE (control/1. inc) (BLMH): 0.08
- Ki (GAK): 82 µM and 82.1 µM
- r (3 mg/1 mg lysate) (GAK): 2.59
- r (5 h/2.5 h inc. time) (GAK): 1.05
- rAVERAGE (2. inc/1. inc) (GAK): 0.45
- rAVERAGE (control/1. inc) (GAK): 0.04
- % BOUND (GAK; bound to AX14596 beads): 55%
